Test results from US20230346827A1 (priority 2020, published 2023).

How the values were obtained:
[1] = test system: Human umbilical vein endothelial cells (HUVECs); experiment: Gene expression array and pathway analysis, HUVECs, LMW-DS 0.01 mg/ml 48 h; format: cell-based; conditions: for number of genes: abolished nutrient effect / number of genes: total / number of genes: enhanced response to nutrients / number of genes: not different from control / Activation z-score / Predicted activation state relative D2 control: HUVECs; for Activation z-score / Predicted activation state relative D2 control: D2 LMW-DS treatment
Protocol: For each cell line, n=8 × 25 cm^2 culture flasks were set up. Two flasks were harvested for each cell type on the day of treatment (24 hours after seeding). This represents the Day0 time point. From the remaining flasks, three flasks were treated with Control Medium and three were treated with Culture Medium (CM) containing LMW-DS to give a final concentration of 0.01 mg/ml. Cells from the treated flasks were collected after 48 hours. Therefore the collected data represent (a) untreated cells (Day0 Controls and Day2 Controls) and (b) cells treated with LMW-DS (ILB®, Tikomed AB, Viken, Sweden, WO 2016/076780) for 48 hours (Day2 LMW-DS treated).
Medium 200 + Large Vessel Endothelial Supplement (M200+LVES) additive (1:50) was prepared and pre-warmed to 37° C. Cells were thawed in a 37° C. water bath for no longer than 2 min and gently transferred into a 50 ml tube containing 20 ml Dulbecco’s Modified Eagle Medium, Nutrient Mixture F-12 (DMEM-F12). The cell suspension was mixed by inverting the tube carefully twice. Cells were spun at 400 × g for 10 minutes. Supernatant removed and cells were re-suspended in 10 ml of culture media (M200+LVES additive).
Cells were counted with the Cellometer. 1,000,000 cells/flask were seeded in 25 cm^2 flasks (n=8) and medium was topped up to a total of 5 ml per flask. Cells were incubated at 37° C. with 5% CO2. Cells were allowed to settle for 24 hours before LMW-DS treatment.
LMW-DS was provided at a stock concentration of 20 mg/ml and was kept in a temperature monitored refrigerator at 4° C. A fresh 100x LMW-DS stock (1.0 mg/ml) was prepared in sterile DMEM-F12. The concentrated drug stock was sterile filtered and added to the respective culture media (19.6 ml CM and 0.4 ml LMW-DS stock solution). The Control was made using 19.6 ml CM and 0.4 ml of DMEM-F12. LMW-DS and CM were added to the respective flasks (5 ml each) to reach the 0.01 mg/ml concentration of LMW-DS in each dish with a total of 10 ml CM each.
CM was aspirated into a clean and labelled 15 ml Falcon tube. The flasks (without culture medium) were placed into the -80° C. freezer for 30 minutes. The CM in the Falcon tubes was spun at 3000 x g for 5 minutes. Supernatant was removed and the small pellet was re-suspended in 2.5 ml Trizol:Water (4:1) solution at room temperature (RT, ~22° C.).
Two aliquots of 1 ml lysate were removed from each sample and 200 µl of chloroform was added to each (0.2 ml of chloroform per 1 ml of TRIzol Reagent used during the cell lysis step) and the tube was shaken vigorously. Samples were stored at RT for 2-3 minutes and subsequently centrifuged at 12,000 x g for 15 minutes at 4° C.
The RNA was precipitated from the aqueous phase by adding an equal amount of 100% ethanol. The precipitated RNA was fixed onto a Spin Cartridge, washed twice and dried. The RNA was eluted in 50 µl warm RNase-Free Water. The amount and quality of the purified RNA was measured by Nanodrop. The RNA was stored at -80° C. before transfer to Source Bioscience for Array analysis.
The expression data were downloaded into separate files for each cell line. The ‘Background corrected’ expression is the data from the “gProcessedSignal” of the arrays that is the result of the background signal extracted from the actual signal of the relevant probe. This is the most often used variable in array analysis. The background corrected signal was log2 transformed for all samples for statistical analysis. To reduce the false discovery rate in the samples, the signals that were below ‘expression level’ were removed. The ‘below expression’ level was set at 5 for the log2 transformed expression values.
Based on the expression pattern of the Control probes on each array it was decided to carry out Median Centering for all arrays before analysis to reduce the variability of the results. […]

ALS patients = experiment: ALSFRS-R / clinical observation in ALS patients (Example 15); format: in vivo, human; conditions: five-week treatment period
Protocol: Dextran sulfate (Tikomed AB, Viken, Sweden, WO 2016/076780) was administered at 1 mg/kg by […] subcutaneous injection once a week for five weeks to 13 human patients suffering from ALS.
ALSFRS-R was assessed pre-treatment and weekly thereafter for the 5 treatment weeks and for the visits at the follow-up period.

sodium salt of dextran sulfate [LMW-DS]
genes regulating cell attachment (of 197) differentially regulated [1]: none
number of differentially expressed genes ([1]; D0 control to D2 LMW-DS treated): 1779
number of differentially expressed genes ([1]; D2 control to D2 LMW-DS treated): 76
number of genes: abolished nutrient effect ([1]; no effect): 67
number of genes: total ([1]; no effect): 67
number of genes: abolished nutrient effect ([1]; significant downregulation): 4
number of genes: enhanced response to nutrients ([1]; significant downregulation): 120
number of genes: not different from control ([1]; significant downregulation): 167
number of genes: total ([1]; significant downregulation): 291
number of genes: abolished nutrient effect ([1]; significant upregulation): 11
number of genes: enhanced response to nutrients ([1]; significant upregulation): 229
number of genes: not different from control ([1]; significant upregulation): 1326
number of genes: total ([1]; significant upregulation): 1566
number of genes: abolished nutrient effect ([1]; total): 82
number of genes: enhanced response to nutrients ([1]; total): 349
number of genes: not different from control ([1]; total): 1493
number of genes: total ([1]; total): 1924
modulation of the effects of oxidative stress on mitochondria ([1]; pathway analysis of gene expression): no significant modulation
genes altered in Control cultures with no changes in LMW-DS treated cultures ([1]; two days): 67
genes downregulated by growth factors, downregulation stronger with LMW-DS ([1]; two days): 120
genes downregulated in control cultures, upregulated in LMW-DS treated cultures ([1]; two days): 11
genes increased in control cultures, downregulated in LMW-DS treated cultures ([1]; two days): 4
genes upregulated in Control cultures, upregulation stronger with LMW-DS ([1]; two days): 229
Activation z-score ([1]; upstream regulator HGF): 3.194
Predicted activation state relative D2 control ([1]; upstream regulator HGF): Activated relative to control
Activation z-score ([1]; upstream regulator TGFβ1): 1.429
Predicted activation state relative D2 control ([1]; upstream regulator TGFβ1): Activated relative to control
Activation z-score ([1]; upstream regulator VEGF): 3.432
Predicted activation state relative D2 control ([1]; upstream regulator VEGF): Activated relative to control
severe bulbar paresis (two patients) (ALS patients): almost complete resolution
